Measurements reported in ChEMBL document CHEMBL1201862, “PubChem BioAssay data set” (2004).
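Grown in 96-well plates, cells were treated for 48 hours with each compound at five concentrations. Insufficient inhibition: endpoint recorded as highest concentration tested. Abbreviation: GI50, concentration required for 50% inhibition of growth.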 Active and inactive are the calls of the source. Cut-off read from the data, not from the text of the source: active = GI50 up to about 1.1 µM and inactive = higher.

Experiments:
Assay in all cases: NCI anticancer screen, dose series, 48 h
MDA-N = tested on: MDA-N
HL-60 = tested on: HL-60
Malme-3M = tested on: Malme-3M
NCI-H522 = tested on: NCI-H522
ACHN = tested on: ACHN
SF-295 = tested on: SF-295
UACC-62 = tested on: UACC-62
MDA-MB-231 = tested on: MDA-MB-231
NCI-H226 = tested on: NCI-H226
PC-3 = tested on: PC-3
HT-29 = tested on: HT-29
T47D = tested on: T47D
SK-MEL-2 = tested on: SK-MEL-2
786-0 = tested on: 786-0
SNB-19 = tested on: SNB-19
SW-620 = tested on: SW-620
A549 = tested on: A549
CAKI-1 = tested on: CAKI-1
RXF 393 = tested on: RXF 393
HOP-92 = tested on: HOP-92

SMILES	GI50 (MDA-N)	GI50 (HL-60)	GI50 (Malme-3M)	GI50 (NCI-H522)	GI50 (ACHN)	GI50 (SF-295)	GI50 (UACC-62)	GI50 (MDA-MB-231)	GI50 (NCI-H226)	GI50 (PC-3)	GI50 (HT-29)	GI50 (T47D)	GI50 (SK-MEL-2)	GI50 (786-0)	GI50 (SNB-19)	GI50 (SW-620)	GI50 (A549)	GI50 (CAKI-1)	GI50 (RXF 393)	GI50 (HOP-92)
CC(=O)OC(Cc1c(O)c2c(C)cccc2oc1=O)C(C)(C)O (centres undefined)	> 100 µM (inactive)	72.6 µM (inactive)	> 100 µM (inactive)	> 100 µM (inactive)	> 100 µM (inactive)	> 100 µM (inactive)	77.4 µM (inactive)	> 100 µM (inactive)	> 100 µM (inactive)	51.4 µM (inactive)	> 100 µM (inactive)	60.4 µM (inactive)	> 100 µM (inactive)	> 100 µM (inactive)	> 100 µM (inactive)	> 100 µM (inactive)	> 100 µM (inactive)	> 100 µM (inactive)	–	–
O=C(O)CCn1cnc2c(S)ncnc21	> 100 µM (inactive)	> 100 µM (inactive)	> 100 µM (inactive)	> 100 µM (inactive)	> 100 µM (inactive)	> 100 µM (inactive)	> 100 µM (inactive)	> 100 µM (inactive)	> 100 µM (inactive)	> 100 µM (inactive)	> 100 µM (inactive)	> 100 µM (inactive)	> 100 µM (inactive)	> 100 µM (inactive)	> 100 µM (inactive)	> 100 µM (inactive)	> 100 µM (inactive)	> 100 µM (inactive)	> 100 µM (inactive)	–
COC(=O)[C@@H]1CN(C(=O)CCc2ccccc2)C(=O)N1C(=O)OCc1ccccc1	> 100 µM (inactive)	> 100 µM (inactive)	> 100 µM (inactive)	> 100 µM (inactive)	> 100 µM (inactive)	> 100 µM (inactive)	> 100 µM (inactive)	> 100 µM (inactive)	> 100 µM (inactive)	–	> 100 µM (inactive)	38.5 µM (inactive)	> 100 µM (inactive)	> 100 µM (inactive)	> 100 µM (inactive)	> 100 µM (inactive)	> 100 µM (inactive)	> 100 µM (inactive)	> 100 µM (inactive)	> 100 µM (inactive)
Sc1nc(S)nc(Oc2ccc(Cl)c(Cl)c2)n1	77.1 µM (inactive)	40 µM (inactive)	> 47.2 µM (inactive)	18.5 µM (inactive)	48.3 µM (inactive)	59 µM (inactive)	31.3 µM (inactive)	39.4 µM (inactive)	38.1 µM (inactive)	–	49.5 µM (inactive)	24.4 µM (inactive)	–	> 61.2 µM (inactive)	> 65.2 µM (inactive)	> 61.4 µM (inactive)	22.4 µM (inactive)	46.3 µM (inactive)	< 0.01 µM (active)	19.2 µM (inactive)
CC(C)(O)/C1=C/C=C/CCCCCCCCCC1	> 100 µM (inactive)	28.9 µM (inactive)	> 100 µM (inactive)	95.9 µM (inactive)	> 100 µM (inactive)	> 100 µM (inactive)	90.2 µM (inactive)	> 100 µM (inactive)	> 100 µM (inactive)	87.1 µM (inactive)	> 100 µM (inactive)	> 100 µM (inactive)	> 100 µM (inactive)	–	> 100 µM (inactive)	> 100 µM (inactive)	–	> 100 µM (inactive)	–	81.3 µM (inactive)
C=C(C)COC1CCCCO1 (centres undefined)	> 100 µM (inactive)	> 100 µM (inactive)	> 100 µM (inactive)	> 100 µM (inactive)	> 100 µM (inactive)	> 100 µM (inactive)	> 100 µM (inactive)	> 100 µM (inactive)	> 100 µM (inactive)	> 100 µM (inactive)	> 100 µM (inactive)	> 100 µM (inactive)	> 100 µM (inactive)	> 100 µM (inactive)	> 100 µM (inactive)	> 100 µM (inactive)	> 100 µM (inactive)	> 100 µM (inactive)	–	–
N#Cc1nn(C2OC(COC(=O)c3ccccc3)C(OC(=O)c3ccccc3)C2OC(=O)c2ccccc2)c2nc[nH]c(=O)c12 (centres undefined)	49.2 µM (inactive)	34 µM (inactive)	36.1 µM (inactive)	36.9 µM (inactive)	44.3 µM (inactive)	46.5 µM (inactive)	> 100 µM (inactive)	58.3 µM (inactive)	> 100 µM (inactive)	45.4 µM (inactive)	36.2 µM (inactive)	46.2 µM (inactive)	85.5 µM (inactive)	35.9 µM (inactive)	72.8 µM (inactive)	63.1 µM (inactive)	39.6 µM (inactive)	38.5 µM (inactive)	36.4 µM (inactive)	–
CC1=C/C(O)CC(=O)Cc2nc(co2)C(=O)N2CCC=C2C(=O)OC(C(C)C)C(C)/C=C\C(=O)NC/C=C\1 (centres undefined)	14.2 µM (inactive)	20.3 µM (inactive)	11.7 µM (inactive)	0.176 µM (active)	12.5 µM (inactive)	48 µM (inactive)	16 µM (inactive)	23.9 µM (inactive)	17.7 µM (inactive)	27.1 µM (inactive)	15.5 µM (inactive)	12.2 µM (inactive)	17.4 µM (inactive)	20.8 µM (inactive)	89.3 µM (inactive)	18.1 µM (inactive)	29.9 µM (inactive)	22 µM (inactive)	–	–
COc1ccc(/C=C2/SC(c3ccc(Cl)cc3)N(NC(=O)CCCCCCCCC(=O)NN3C(=O)/C(=C\c4ccc(OC)c(OC)c4)SC3c3ccc(Cl)cc3)C2=O)cc1OC (centres undefined)	36.6 µM (inactive)	–	–	–	65.2 µM (inactive)	21.4 µM (inactive)	29.3 µM (inactive)	> 100 µM (inactive)	> 100 µM (inactive)	54.1 µM (inactive)	> 100 µM (inactive)	> 100 µM (inactive)	78 µM (inactive)	24.4 µM (inactive)	50.2 µM (inactive)	> 100 µM (inactive)	64.3 µM (inactive)	47.1 µM (inactive)	28 µM (inactive)	18.8 µM (inactive)
CC1(C)[C@@H](Cn2cnc3c(O)nc(N)nc32)CC[C@@]1(C)CO	> 100 µM (inactive)	–	–	–	> 100 µM (inactive)	> 100 µM (inactive)	60.5 µM (inactive)	> 100 µM (inactive)	> 100 µM (inactive)	> 100 µM (inactive)	–	> 100 µM (inactive)	> 100 µM (inactive)	> 100 µM (inactive)	> 100 µM (inactive)	> 100 µM (inactive)	> 100 µM (inactive)	> 100 µM (inactive)	> 100 µM (inactive)	> 100 µM (inactive)
COc1ccccc1Nc1nc(NNC(=O)Cc2ccccc2)nc(NNC(=O)c2ccncc2)n1	> 10 µM (inactive)	> 10 µM (inactive)	> 10 µM (inactive)	–	–	–	> 10 µM (inactive)	> 10 µM (inactive)	–	–	> 10 µM (inactive)	> 10 µM (inactive)	–	> 10 µM (inactive)	–	> 10 µM (inactive)	> 10 µM (inactive)	> 10 µM (inactive)	–	> 10 µM (inactive)
COc1ccc(-c2cc(=O)c3c(O)c(OC)c(OC)c(OC)c3o2)cc1OC [5-DEMETHYLNOBILETIN]	> 100 µM (inactive)	> 100 µM (inactive)	> 100 µM (inactive)	8.97 µM (inactive)	> 100 µM (inactive)	> 100 µM (inactive)	> 100 µM (inactive)	> 100 µM (inactive)	> 100 µM (inactive)	> 100 µM (inactive)	> 100 µM (inactive)	4.28 µM (inactive)	91.2 µM (inactive)	58.7 µM (inactive)	> 100 µM (inactive)	> 10 µM (inactive)	> 100 µM (inactive)	> 100 µM (inactive)	–	3.73 µM (inactive)
O=C(O)Cc1cccc2c1OC(c1ccccc1)C(Cl)(C(=O)c1ccccc1)C2=O (centres undefined)	14.4 µM (inactive)	11.9 µM (inactive)	18.2 µM (inactive)	14.2 µM (inactive)	14 µM (inactive)	23 µM (inactive)	–	18.7 µM (inactive)	30.1 µM (inactive)	11.4 µM (inactive)	16.4 µM (inactive)	16.9 µM (inactive)	–	12.9 µM (inactive)	40.1 µM (inactive)	9.33 µM (inactive)	29.4 µM (inactive)	17.8 µM (inactive)	> 10 µM (inactive)	–
COc1ccc(NC(=S)N/N=C/c2cccc(C)n2)cc1	1.41 µM (inactive)	1.84 µM (inactive)	3.13 µM (inactive)	0.203 µM (active)	2.83 µM (inactive)	4.09 µM (inactive)	2.24 µM (inactive)	3.9 µM (inactive)	10.2 µM (inactive)	4.58 µM (inactive)	3.94 µM (inactive)	3.62 µM (inactive)	6.4 µM (inactive)	3.98 µM (inactive)	7.16 µM (inactive)	2.86 µM (inactive)	5.22 µM (inactive)	4.25 µM (inactive)	–	5.65 µM (inactive)
CC1(C)O[C@H]2OC(CO)C(N=[N+]=[N-])[C@H]2O1 (some centres undefined)	> 100 µM (inactive)	> 100 µM (inactive)	> 100 µM (inactive)	> 100 µM (inactive)	> 100 µM (inactive)	> 100 µM (inactive)	> 100 µM (inactive)	> 100 µM (inactive)	–	> 100 µM (inactive)	> 100 µM (inactive)	> 100 µM (inactive)	> 100 µM (inactive)	> 100 µM (inactive)	> 100 µM (inactive)	> 100 µM (inactive)	> 100 µM (inactive)	> 100 µM (inactive)	–	> 100 µM (inactive)
